Source: patent US20090142347A1, “Tissue-Nonspecific Alkaline Phosphatase (TNAP): a Therapeutic Target for Arterial Calcification” (THE BURNHAM INSTITUTE FOR MEDICAL RESEARCH, priority 2004, published 2009)

Tests used:
hTNALP A109 = hTNALP A109 (Homo sapiens, UniProt P05186, G126A); experiment: biochemical
hTNALP S434 = hTNALP S434 (Homo sapiens, UniProt P05186, H451S); experiment: biochemical
hTNALP N168 = hTNALP N168 (Homo sapiens, UniProt P05186, D185N); experiment: biochemical
hPLALP R428 = target: T1, hPLALP R428 (Homo sapiens, UniProt P05187, D450R); experiment: Ki of uncompetitive inhibitors (pNPP substrate); format: biochemical; details: hPLALP mutant R428; read-out: Ki for various inhibitors
T1 construct: made in house; host or cells: COS-7 (given only for the TNAP-Flag constructs)
Protocol: (§1) In brief, samples of the enzymes were added to microtiter plates coated with M2 anti-FLAG antibody, and saturating activities with the substrate pNPP were measured in 1 M DEA/HCl buffer, pH 9.8, containing 1 mM MgCl2 and 20 .micro.M ZnCl2.

hPLALP (E107, G108) = target: T2, hPLALP (E107, G108) (Homo sapiens, UniProt P05187, F129E/Q130G); experiment: Ki of uncompetitive inhibitors (pNPP substrate); format: biochemical; details: hPLALP mutant (E107, G108); read-out: Ki for various inhibitors
T2 construct: made in house; host or cells: COS-7 (given only for the TNAP-Flag constructs)
Protocol: as §1

hPLALP G429 = target: T3, hPLALP G429 (Homo sapiens, UniProt P05187, E451G); experiment: Ki of uncompetitive inhibitors (pNPP substrate); format: biochemical; details: hPLALP mutant G429; read-out: Ki for various inhibitors
T3 construct: made in house; host or cells: COS-7 (given only for the TNAP-Flag constructs)
Protocol: as §1

hPLALP (R428, H429) = target: T4, hPLALP (R428, H429) (Homo sapiens, UniProt P05187, D450R/E451H); experiment: Ki of uncompetitive inhibitors (pNPP substrate); format: biochemical; details: hPLALP mutant (R428, H429); read-out: Ki for various inhibitors
T4 construct: made in house; host or cells: COS-7 (given only for the TNAP-Flag constructs)
Protocol: as §1

hPLALP E107 = target: T5, hPLALP E107 (Homo sapiens, UniProt P05187, F129E); experiment: Ki of uncompetitive inhibitors (pNPP substrate); format: biochemical; details: hPLALP mutant E107; read-out: Ki for various inhibitors
T5 construct: made in house
Protocol: as §1

hPLALP (G108, G429) = target: T6, hPLALP (G108, G429) (Homo sapiens, UniProt P05187, E451G/Q130G); experiment: Ki of uncompetitive inhibitors (pNPP substrate); format: biochemical; details: hPLALP mutant (G108, G429); read-out: Ki for various inhibitors
T6 construct: made in house; host or cells: COS-7 (given only for the TNAP-Flag constructs)
Protocol: as §1

hTNALP Q109 = hTNALP Q109 (Homo sapiens, UniProt P05186, G126Q); experiment: biochemical
hTNALP (D433, E434) = hTNALP (D433, E434) (Homo sapiens, UniProt P05186, H451E/R450D); experiment: biochemical
Chain of hTNALP (D433, E434) (P05186 18-501 R450D/H451E): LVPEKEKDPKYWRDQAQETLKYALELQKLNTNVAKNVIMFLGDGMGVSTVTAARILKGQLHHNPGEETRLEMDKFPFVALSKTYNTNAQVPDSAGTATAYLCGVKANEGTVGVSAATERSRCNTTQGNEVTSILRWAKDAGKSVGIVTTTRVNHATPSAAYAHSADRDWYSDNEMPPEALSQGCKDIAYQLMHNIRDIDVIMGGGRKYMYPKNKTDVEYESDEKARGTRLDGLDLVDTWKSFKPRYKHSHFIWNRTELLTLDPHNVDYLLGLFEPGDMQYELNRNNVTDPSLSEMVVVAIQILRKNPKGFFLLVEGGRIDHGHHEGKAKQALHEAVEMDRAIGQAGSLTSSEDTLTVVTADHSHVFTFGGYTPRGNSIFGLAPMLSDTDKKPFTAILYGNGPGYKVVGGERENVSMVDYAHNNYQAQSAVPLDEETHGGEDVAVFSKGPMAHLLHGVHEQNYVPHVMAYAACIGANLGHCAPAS

Chain of hTNALP S434 (P05186 18-501 H451S): as the sequence (P05186 18-501 R450D/H451E) above, with D433R, E434S counted along it
Chain of hTNALP Q109 (P05186 18-501 G126Q): as the sequence (P05186 18-501 R450D/H451E) above, with G109Q, D433R, E434H counted along it
T5 sequence (P05187 23-506 F129E limits assumed): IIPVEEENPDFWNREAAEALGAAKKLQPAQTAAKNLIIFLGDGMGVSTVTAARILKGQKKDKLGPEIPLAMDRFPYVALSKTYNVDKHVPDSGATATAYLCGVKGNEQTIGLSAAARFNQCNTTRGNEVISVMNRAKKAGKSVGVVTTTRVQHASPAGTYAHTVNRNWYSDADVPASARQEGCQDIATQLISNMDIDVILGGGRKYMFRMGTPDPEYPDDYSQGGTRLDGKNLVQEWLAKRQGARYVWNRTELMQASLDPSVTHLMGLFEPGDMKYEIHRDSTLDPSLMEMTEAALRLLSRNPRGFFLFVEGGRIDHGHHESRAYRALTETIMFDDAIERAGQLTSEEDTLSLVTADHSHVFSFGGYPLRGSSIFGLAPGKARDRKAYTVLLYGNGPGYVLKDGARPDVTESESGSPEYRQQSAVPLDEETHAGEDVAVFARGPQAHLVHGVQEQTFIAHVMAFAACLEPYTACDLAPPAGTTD
T3 sequence (P05187 23-506 E451G limits assumed): as the sequence (P05187 23-506 F129E limits assumed) above, with E107F, E429G counted along it
T6 sequence (P05187 23-506 Q130G/E451G limits assumed): as the sequence (P05187 23-506 F129E limits assumed) above, with E107F, Q108G, E429G counted along it
Chain of hTNALP N168 (P05186 18-501 D185N): as the sequence (P05186 18-501 R450D/H451E) above, with D168N, D433R, E434H counted along it
Chain of hTNALP A109 (P05186 18-501 G126A): as the sequence (P05186 18-501 R450D/H451E) above, with G109A, D433R, E434H counted along it
T4 sequence (P05187 23-506 D450R/E451H limits assumed): as the sequence (P05187 23-506 F129E limits assumed) above, with E107F, D428R, E429H counted along it
T1 sequence (P05187 23-506 D450R limits assumed): as the sequence (P05187 23-506 F129E limits assumed) above, with E107F, D428R counted along it
T2 sequence (P05187 23-506 F129E/Q130G limits assumed): as the sequence (P05187 23-506 F129E limits assumed) above, with Q108G counted along it

| Structure (SMILES) | Ki (hTNALP A109) [mM] | Ki (hTNALP S434) [mM] | Ki (hTNALP N168) [mM] | Ki (hPLALP R428) [mM] | Ki (hPLALP (E107, G108)) [mM] | Ki (hPLALP G429) [mM] | Ki (hPLALP (R428, H429)) [mM] | Ki (hPLALP E107) [mM] | Ki (hPLALP (G108, G429)) [mM] | Ki (hTNALP Q109) [mM] | Ki (hTNALP (D433, E434)) [mM] |
| --- | --- | --- | --- | --- | --- | --- | --- | --- | --- | --- | --- |
| N[C@@H](Cc1ccccc1)C(=O)O [L-Phe, L-phenylalanine] | 20 ± 4 | 13 ± 2 | 42 ± 6 | 0.54 ± 0.05 | 23 ± 2 | 0.09 ± 0.01 | 0.35 ± 0.04 | 3.8 ± 0.4 | 0.49 ± 0.06 | 4 ± 1.1 |  |
| N=C(N)NCCCC[C@H](N)C(=O)O [L-hArg, L-homoarginine] | 1.3 ± 0.2 | 1.6 ± 0.1 | 1.8 ± 0.1 | 36 ± 4 | 12 ± 1.6 | 12 ± 2 | 14 ± 1 | 5.7 ± 0.9 | 18 ± 2 | 1.6 ± 0.1 | 13 ± 1.6 |
